Results published in patent US20050282755A1, “Compositions having antimicrobial activity and uses thereof” (priority 2004, published 2005).
Values after ≈ are worked out from the molar mass of the structure shown. Non-standard residues stand in square brackets, D forms with d. Residues, ends and D or L forms follow the SMILES beside them. *: point of attachment. Lauroyl = CCCCCCCCCCCC(=O)*; Decanoyl = CCCCCCCCCC(=O)*; Octanoyl = CCCCCCCC(=O)*

What was measured:
Format in all cases: cell-based
[1] = system: Staphylococcus aureus ATCC 29213; assay: MIC, NCCLS M7-A6 broth microdilution, cation-adjusted Mueller Hinton broth (Table 9, no superscript); settings: ATCC 29213
How it was run: (§1)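 MIC determined by microdilution in cation-adjusted Mueller Hinton broth after overnight growth at 37° C, defined as the lowest peptide level lacking turbidity.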

[2] = system: Escherichia coli ATCC 25922; assay: MIC, NCCLS M7-A6 broth microdilution (Table 9, no superscript); settings: ATCC 25922
How it was run: as §1

[3] = system: Pseudomonas aeruginosa ATCC 27853; assay: as above; settings: ATCC 27853
How it was run: as §1

[4] = system: Salmonella dublin (Lane); assay: as above
How it was run: as §1

[5] = system: Staphylococcus epidermidis ATCC 12228; assay: as above; settings: ATCC 12228
How it was run: as §1

[6] = system: Propionibacterium acnes ATCC 6919; assay: MIC, agar dilution method NCCLS M11-A6, Brucella agar, anaerobic (Table 9, superscript c); settings: ATCC 6919
Method: A bacterial suspension was prepared to allow for a final inoculum on the plate of 1.5×10^8 CFU/milliliter. After the suspension absorbed into the agar surface, the plates were incubated for 48-96 hours at 37° C. in a GasPak anaerobic chamber. The lowest concentration of peptide that contained no colony growth on the agar plate was determined as the MIC. MIC values that utilized this method of MIC determination are indicated in Table 9 with a superscript letter “c.”

SMILES | MIC S. aureus [1] | MIC E. coli [2] | MIC P. aeruginosa [3] | MIC S. dublin [4] | MIC S. epidermidis [5] | MIC P. acnes [6]
CCCCCCCCCCCC(=O)N[C@H](CCCNC(=N)N)C(=O)N[C@H](CO)C(=O)N[C@H](CCCNC(=N)N)C(=O)N[C@H](Cc1c[nH]c2ccccc12)C(=O)N[C@H](CCCNC(=N)N)C(=O)N[C@H](CC(=O)O)C(=O)N[C@H](CO)C(=O)N[C@H](C)C(=O)N[C@H](CCCNC(=N)N)C(=O)N[C@H](CC(N)=O)C(=O)N[C@H](Cc1ccccc1)C(=O)N[C@H](CCSC)C(=O)N[C@H](CCCNC(=N)N)C(N)=O [Peptide 233, Lauryl-rsrwrdsarnfmr-NH2] (Lauroyl-[dR][dS][dR][dW][dR][dD][dS][dA][dR][dN][dF][dM][dR]-NH2) | 16 µg/mL (≈ 8.34 µM) | 16 µg/mL (≈ 8.34 µM) | 64 µg/mL (≈ 33.3 µM) | >64 µg/mL | 16 µg/mL (≈ 8.34 µM) | 16c ug/mL
CCCCCCCCCCCC(=O)N[C@@H](CCCNC(=N)N)C(=O)N[C@@H](Cc1c[nH]c2ccccc12)C(=O)N[C@@H](CCCNC(=N)N)C(=O)N[C@@H](C)C(=O)N[C@@H](CC(C)C)C(=O)N[C@@H](C)C(=O)N[C@@H](CCCNC(=N)N)C(N)=O [Peptide 242, Lauryl-RWRALAR-NH2] (Lauroyl-RWRALAR-NH2) | 2 µg/mL (≈ 1.8 µM) | 16 µg/mL (≈ 14.4 µM) | 8 µg/mL (≈ 7.21 µM) | 32 µg/mL (≈ 28.8 µM) | 2 µg/mL (≈ 1.8 µM) | 64c ug/mL
CCCCCCCCCCCC(=O)N[C@H](CCCNC(=N)N)C(=O)N[C@H](CCCCN)C(=O)N[C@H](CCCNC(=N)N)C(=O)N[C@H](Cc1c[nH]c2ccccc12)C(=O)N[C@H](CCCNC(=N)N)C(=O)N[C@H](CC(=O)O)C(=O)N[C@@H](C(=O)N[C@H](C)C(=O)N[C@H](CCCNC(=N)N)C(=O)N[C@H](CC(N)=O)C(=O)N[C@H](Cc1ccccc1)C(=O)N[C@H](CC(C)C)C(=O)N[C@H](CCCNC(=N)N)C(N)=O)C(C)C [Peptide 219, Lauryl-rkrwrdvarnflr-NH2] (Lauroyl-[dR][dK][dR][dW][dR][dD][dV][dA][dR][dN][dF][dL][dR]-NH2) | 4 µg/mL (≈ 2.05 µM) | 8 µg/mL (≈ 4.09 µM) | 4 µg/mL (≈ 2.05 µM) | 4 µg/mL (≈ 2.05 µM) | 2 µg/mL (≈ 1.02 µM) | 16c ug/mL
CCCCCCCCCCCC(=O)N[C@@H](Cc1c[nH]c2ccccc12)C(=O)N[C@@H](CCCNC(=N)N)C(=O)N[C@@H](CC(=O)O)C(=O)N[C@H](C(=O)N[C@@H](C)C(=O)N[C@@H](CCCNC(=N)N)C(=O)N[C@@H](CC(N)=O)C(N)=O)C(C)C [Peptide 106, Lauryl-WRDVARN-NH2] (Lauroyl-WRDVARN-NH2) | 8 µg/mL (≈ 7.29 µM) | >64 µg/mL | >64 µg/mL | >64 µg/mL | 16 µg/mL (≈ 14.6 µM) | >64c ug/mL
CCCCCCCCCCCC(=O)N[C@@H](CCCNC(=N)N)C(=O)N[C@@H](Cc1c[nH]c2ccccc12)C(=O)N[C@@H](CCCNC(=N)N)C(=O)N[C@@H](CC(=O)O)C(=O)N[C@H](C(=O)N[C@@H](C)C(=O)N[C@@H](CCCNC(=N)N)C(=O)N[C@@H](CC(N)=O)C(=O)N[C@@H](Cc1ccccc1)C(=O)N[C@@H](CC(C)C)C(=O)N[C@@H](CCCNC(=N)N)C(N)=O)C(C)C [Peptide 163, Lauryl-RWRDVARNFLR-NH2] (Lauroyl-RWRDVARNFLR-NH2) | 4 µg/mL (≈ 2.4 µM) | 16 µg/mL (≈ 9.58 µM) | >64 µg/mL | 8 µg/mL (≈ 4.79 µM) | 8 µg/mL (≈ 4.79 µM) | >64c ug/mL
CCCCCCCCCCCC(=O)N[C@H](CCCNC(=N)N)C(=O)N[C@H](Cc1c[nH]c2ccccc12)C(=O)N[C@H](CCCNC(=N)N)C(=O)N[C@H](C)C(=O)N[C@H](CC(C)C)C(=O)N[C@H](C)C(=O)N[C@H](CCCNC(=N)N)C(N)=O [Peptide 245, Lauryl-rwralar-NH2] (Lauroyl-[dR][dW][dR][dA][dL][dA][dR]-NH2) | 1 µg/mL (≈ 0.901 µM) | 8 µg/mL (≈ 7.21 µM) | 8 µg/mL (≈ 7.21 µM) | 16 µg/mL (≈ 14.4 µM) | 2 µg/mL (≈ 1.8 µM) | 8c ug/mL
CCCCCCCCCC(=O)N[C@@H](CCCNC(=N)N)C(=O)N[C@@H](CO)C(=O)N[C@@H](CCCNC(=N)N)C(=O)N[C@@H](Cc1c[nH]c2ccccc12)C(=O)N[C@@H](CCCNC(=N)N)C(=O)N[C@@H](CC(=O)O)C(=O)N[C@H](C(=O)N[C@@H](C)C(=O)N[C@@H](CCCNC(=N)N)C(=O)N[C@@H](CC(N)=O)C(=O)N[C@@H](Cc1ccccc1)C(=O)N[C@@H](CCSC)C(=O)N[C@@H](CCCNC(=N)N)C(N)=O)C(C)C [Peptide 204, Decanyl-RSRWRDVARNFMR-NH2] (Decanoyl-RSRWRDVARNFMR-NH2) | 8 µg/mL (≈ 4.2 µM) | 8 µg/mL (≈ 4.2 µM) | 32 µg/mL (≈ 16.8 µM) | 32 µg/mL (≈ 16.8 µM) | 2 µg/mL (≈ 1.05 µM) | >64c ug/mL
CCCCCCCCCCCC(=O)N[C@H](CCCNC(=N)N)C(=O)N[C@H](CC(C)C)C(=O)N[C@H](CCCNC(=N)N)C(=O)N[C@H](Cc1c[nH]c2ccccc12)C(=O)N[C@H](CCCNC(=N)N)C(=O)N[C@H](CCC(=O)O)C(=O)N[C@@H](C(=O)N[C@H](C)C(=O)N[C@H](CCCNC(=N)N)C(=O)N[C@H](CC(C)C)C(=O)N[C@H](Cc1ccccc1)C(=O)N[C@H](CC(C)C)C(=O)N[C@H](CCCNC(=N)N)C(N)=O)C(C)C [Peptide 227, Lauryl-rlrwrevarlflr-NH2] (Lauroyl-[dR][dL][dR][dW][dR][dE][dV][dA][dR][dL][dF][dL][dR]-NH2) | 32 µg/mL (≈ 16.4 µM) | 64 µg/mL (≈ 32.8 µM) | >64 µg/mL | 32 µg/mL (≈ 16.4 µM) | 32 µg/mL (≈ 16.4 µM) | >64c ug/mL
CCCCCCCC(=O)N[C@H](CCCNC(=N)N)C(=O)N[C@H](CO)C(=O)N[C@H](CCCNC(=N)N)C(=O)N[C@H](Cc1c[nH]c2ccccc12)C(=O)N[C@H](CCCNC(=N)N)C(=O)N[C@H](CC(=O)O)C(=O)N[C@@H](C(=O)N[C@H](C)C(=O)N[C@H](CCCNC(=N)N)C(=O)N[C@H](CC(N)=O)C(=O)N[C@H](Cc1ccccc1)C(=O)N[C@H](CCSC)C(=O)N[C@H](CCCNC(=N)N)C(N)=O)C(C)C [Peptide 207, Octyl-rsrwrdvarnfmr-NH2] (Octanoyl-[dR][dS][dR][dW][dR][dD][dV][dA][dR][dN][dF][dM][dR]-NH2) | 16 µg/mL (≈ 8.53 µM) | 32 µg/mL (≈ 17.1 µM) | 32 µg/mL (≈ 17.1 µM) | 64 µg/mL (≈ 34.1 µM) | 4 µg/mL (≈ 2.13 µM) | 16c ug/mL
CCCCCCCCCCCC(=O)N[C@H](CCCNC(=N)N)C(=O)N[C@H](CO)C(=O)N[C@H](CCCNC(=N)N)C(=O)N[C@H](Cc1c[nH]c2ccccc12)C(=O)N[C@H](CCCNC(=N)N)C(=O)N[C@H](CC(=O)O)C(=O)N[C@@H](C(=O)N[C@H](C)C(=O)N[C@H](CCCNC(=N)N)C(=O)N[C@H](C)C(=O)N[C@H](Cc1ccccc1)C(=O)N[C@H](CC(C)C)C(=O)N[C@H](CCCNC(=N)N)C(N)=O)C(C)C [Peptide 226, Lauryl-rsrwrdvaraflr-NH2] (Lauroyl-[dR][dS][dR][dW][dR][dD][dV][dA][dR][dA][dF][dL][dR]-NH2) | 8 µg/mL (≈ 4.28 µM) | 16 µg/mL (≈ 8.55 µM) | >64 µg/mL | 16 µg/mL (≈ 8.55 µM) | 4 µg/mL (≈ 2.14 µM) | 32c ug/mL
